Reference: US4826845A, “3(2H)-pyridazinones and pharmaceutical compositions thereof” (Richter Gedeon Vegyeszeti Gyar T.R., priority 1985, dated 1989)
Structures can show the parent of a compound that is named as a salt. Where two headings read alike, the source gives them in different places.

Experiments:
[1] = test system: anaesthetized cats; test: Measurement of the hypotensive effect on anaesthetized cats (i.v. screening); type: in vivo, cat; conditions: for Mean arterial pressure decrease: anaesthetized cats; for blood pressure lowering action (in words): intravenous, summary of Table 1
Protocol: A tube was introduced into the trachea of cats anaesthetized by the intraperitoneal (i.p.) administration of 35 mg/kg of sodium pentobarbital whereby the spontaneous breathing was supported. On the one side of the animals, the femoral artery and vein were exposed and a polyethylene cannula was introduced in both vessels each. The substances to be tested were administered through the venous cannula. The mean arterial blood pressure was measured by connecting the arterial cannula with a Statham P 23 Db pressure transducer and electromanometer.
As a first screening dose, 5 mg/kg of the compounds to be tested were intravenously (i.v.) administered.

[2] = test system: adrenergic receptor-mediated calcium channel; test: Calcium-antagonism on isolated portal vein: adrenergic receptor-mediated calcium channel; type: cell-based; conditions: rat portal vein, 1×10^-5 mole norepinephrine, 37° C.; read-out: Inhibition of the calcium channel, adrenergic receptor-mediated, IC50
Protocol: (§1) The calcium-antagonism of the compounds of the invention was studied on an isolated vessel preparation based on the work of M. Fiol de Cuneo et al. [Arch. Int. Pharmacodyn.
(§2) Male CFY rats with a body-weight of 150 to 200 g were bled by decapitation and the portal vein was immediately prepared starting from the hepatic portal. The vessel was longitudinally incised, bound to a transducer registering the contractions and incubated under a tension of 1 g at 37° C. in a calcium-free Krebs-Ringer bicarbonate solution aerated with carbogen. After an equilibration lasting for 30 minutes, the functioning of the receptor-mediated and the K^+ -depolarisation-mediated calcium channels, respectively, were investigated.
(§3) All measurements were carried out at 37° C. while bubbling through carbogen.

[3] = test system: pressor (blood pressure increasing) effect of epinephrine; test: Inhibition of the pressor effect of epinephrine; conditions: in vivo
[4] = test system: conscious SH rats; test: Antihypertensive effect on conscious, spontaneously hypertensive (SH) rats after oral administration; type: in vivo, rat
Text: The systolic blood pressure was indirectly measured by the tail-cuff method. The compounds to be tested were introduced orally (p.o.) to the animals. The blood pressure measurements were made by using a 5-channel automatized equipment.

[5] = test system: anaesthetized dogs; test: Hypotensive and heart rate effects on anaesthetized dogs after intravenous or intraduodenal administration; type: in vivo, Beagle dog
Protocol: (§4) Beagle dogs of both sexes were anaesthetized by the intravenous administration of 40 mg/kg of sodium pentobarbital. A cannula was introduced to the femoral artery and vein each on one side for the intravenous administration of the compounds to be tested as well as for measuring the blood pressure.
In an other series of these experiments, the substances were administered through a duodenal tube. Similarly to the experiments carried out on cats, the systemic arterial blood pressure was measured by using an electromanometer and the cardiotachometer was triggered by the heart rate wave sign. […]

[6] = test system: conscious SH rats; test: Antihypertensive effect on conscious SH rats after acute oral treatment; type: in vivo, rat; conditions: SH rats
Text: (§5) These experiments were accomplished on conscious spontaneously hypertensive (SH) and renally hypertensive rats.
(§6) The systolic blood pressure and heart rate of the animals were indirectly measured by using the tail-cuff method by means of a 5- channel automatized equipment.

[7] = test system: pre- and postsynaptic alpha receptors; test: Action on the pre- and postsynaptic adrenergic alpha receptors on the stimulated mouse vas deferens; type: cell-based; conditions: concentration 10^-7 mole
Protocol: The method of Hughes et al. [Brit. J. Phamacol. 51, pp. 139-140P (1975)] was used. The preparations suspended in a modified Krebs solution at 31° C. were excited by the field stimulation method [rectangular paired impulses with 1 msec interval, supramaximal potential (70 to 75 V=8 to 9 V/cm) and 100 msec impulse interval, pairs repeated in each 10 sec]. After stimulation, norepinephrine (NE) was dropped into the organ bath and a dose-response curve was taken up. Thus, the effect of both the endogenous norepinephrine liberated by stimulation and the exogenous norepinephrine could be studied before and after adding the substance to be tested.

[8] = biological target: T1, potential-mediated calcium channel (Rattus norvegicus, UniProt P22002); test: Calcium-antagonism on isolated portal vein: potential-mediated calcium channel; type: cell-based
T1 construct: from tissue; host or cells: isolated rat portal vein
T1 sequence (P22002 whole entry): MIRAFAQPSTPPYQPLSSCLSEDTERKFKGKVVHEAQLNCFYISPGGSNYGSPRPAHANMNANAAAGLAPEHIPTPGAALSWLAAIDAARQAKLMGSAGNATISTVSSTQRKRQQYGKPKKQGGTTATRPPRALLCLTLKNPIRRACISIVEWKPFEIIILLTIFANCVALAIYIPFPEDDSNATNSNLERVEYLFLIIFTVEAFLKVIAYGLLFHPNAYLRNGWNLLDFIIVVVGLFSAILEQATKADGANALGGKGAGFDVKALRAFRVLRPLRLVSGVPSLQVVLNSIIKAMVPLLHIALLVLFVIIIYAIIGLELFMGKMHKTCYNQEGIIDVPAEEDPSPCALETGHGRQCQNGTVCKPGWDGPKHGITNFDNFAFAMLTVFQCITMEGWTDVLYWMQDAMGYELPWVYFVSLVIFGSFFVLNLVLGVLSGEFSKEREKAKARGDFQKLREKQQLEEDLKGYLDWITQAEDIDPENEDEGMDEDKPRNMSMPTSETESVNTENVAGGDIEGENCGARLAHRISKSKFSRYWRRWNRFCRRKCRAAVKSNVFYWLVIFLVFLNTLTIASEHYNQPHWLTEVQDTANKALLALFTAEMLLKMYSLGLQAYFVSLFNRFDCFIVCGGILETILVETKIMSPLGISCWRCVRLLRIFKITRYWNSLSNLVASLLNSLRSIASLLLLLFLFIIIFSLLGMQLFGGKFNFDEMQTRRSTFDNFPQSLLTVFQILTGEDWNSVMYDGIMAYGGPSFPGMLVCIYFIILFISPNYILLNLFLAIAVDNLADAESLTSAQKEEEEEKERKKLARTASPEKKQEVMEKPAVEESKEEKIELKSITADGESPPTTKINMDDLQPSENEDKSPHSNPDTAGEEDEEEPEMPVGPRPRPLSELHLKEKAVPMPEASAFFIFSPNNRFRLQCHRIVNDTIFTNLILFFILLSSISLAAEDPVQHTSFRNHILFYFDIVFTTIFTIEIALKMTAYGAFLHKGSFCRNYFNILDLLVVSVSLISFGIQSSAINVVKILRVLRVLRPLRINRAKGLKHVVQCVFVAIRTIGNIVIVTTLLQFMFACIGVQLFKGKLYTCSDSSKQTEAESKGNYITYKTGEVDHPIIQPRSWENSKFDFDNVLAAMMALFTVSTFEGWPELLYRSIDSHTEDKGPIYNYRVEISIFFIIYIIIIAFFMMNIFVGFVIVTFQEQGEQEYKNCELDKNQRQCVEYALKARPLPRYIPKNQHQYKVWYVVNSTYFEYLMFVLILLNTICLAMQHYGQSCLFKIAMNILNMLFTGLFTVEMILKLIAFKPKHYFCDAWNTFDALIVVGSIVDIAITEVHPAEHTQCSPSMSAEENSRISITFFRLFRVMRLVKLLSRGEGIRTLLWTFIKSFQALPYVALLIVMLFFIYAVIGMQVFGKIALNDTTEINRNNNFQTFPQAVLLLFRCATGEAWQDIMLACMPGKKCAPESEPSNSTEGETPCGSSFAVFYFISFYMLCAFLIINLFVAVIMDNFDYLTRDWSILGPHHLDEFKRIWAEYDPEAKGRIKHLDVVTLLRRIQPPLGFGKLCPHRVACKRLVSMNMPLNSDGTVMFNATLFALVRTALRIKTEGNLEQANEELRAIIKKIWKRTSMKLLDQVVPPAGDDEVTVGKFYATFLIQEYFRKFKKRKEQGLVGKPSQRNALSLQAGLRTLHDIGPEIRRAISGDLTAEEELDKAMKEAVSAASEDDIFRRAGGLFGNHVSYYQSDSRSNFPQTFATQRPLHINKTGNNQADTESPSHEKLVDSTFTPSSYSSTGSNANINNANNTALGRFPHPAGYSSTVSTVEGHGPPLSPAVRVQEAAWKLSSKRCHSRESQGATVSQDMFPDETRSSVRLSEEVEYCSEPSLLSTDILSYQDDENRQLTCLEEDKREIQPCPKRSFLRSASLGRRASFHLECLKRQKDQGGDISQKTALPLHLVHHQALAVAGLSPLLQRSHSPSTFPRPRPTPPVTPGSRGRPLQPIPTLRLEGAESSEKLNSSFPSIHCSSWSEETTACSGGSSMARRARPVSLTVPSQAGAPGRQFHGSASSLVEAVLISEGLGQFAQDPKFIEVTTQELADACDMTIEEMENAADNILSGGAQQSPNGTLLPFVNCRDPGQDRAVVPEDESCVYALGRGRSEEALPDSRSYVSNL
T1 sequence (P54290 25-944 partner limits assumed): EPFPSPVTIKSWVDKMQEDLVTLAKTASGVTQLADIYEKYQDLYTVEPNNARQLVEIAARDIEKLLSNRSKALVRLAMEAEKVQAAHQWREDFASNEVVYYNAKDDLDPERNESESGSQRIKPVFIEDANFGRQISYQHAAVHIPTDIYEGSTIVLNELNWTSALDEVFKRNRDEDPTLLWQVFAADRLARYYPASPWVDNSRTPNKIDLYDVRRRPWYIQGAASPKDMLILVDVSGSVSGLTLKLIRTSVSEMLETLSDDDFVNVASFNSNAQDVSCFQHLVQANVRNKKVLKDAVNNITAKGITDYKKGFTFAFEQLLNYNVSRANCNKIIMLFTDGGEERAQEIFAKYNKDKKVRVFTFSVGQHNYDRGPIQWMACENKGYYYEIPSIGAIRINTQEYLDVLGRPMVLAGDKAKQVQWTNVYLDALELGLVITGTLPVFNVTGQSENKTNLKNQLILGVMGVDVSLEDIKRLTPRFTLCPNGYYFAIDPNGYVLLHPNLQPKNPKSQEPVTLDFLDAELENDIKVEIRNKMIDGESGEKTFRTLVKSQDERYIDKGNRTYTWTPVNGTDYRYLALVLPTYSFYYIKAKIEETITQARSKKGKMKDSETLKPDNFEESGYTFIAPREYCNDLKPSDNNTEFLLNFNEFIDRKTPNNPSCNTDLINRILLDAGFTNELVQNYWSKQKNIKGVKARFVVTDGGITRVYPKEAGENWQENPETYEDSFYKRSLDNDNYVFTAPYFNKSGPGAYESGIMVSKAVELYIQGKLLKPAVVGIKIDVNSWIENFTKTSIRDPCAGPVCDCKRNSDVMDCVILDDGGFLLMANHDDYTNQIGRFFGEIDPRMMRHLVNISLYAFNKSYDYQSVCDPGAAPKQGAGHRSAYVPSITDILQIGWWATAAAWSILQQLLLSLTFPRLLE
T1 sequence (P54290 945-1091 partner limits assumed): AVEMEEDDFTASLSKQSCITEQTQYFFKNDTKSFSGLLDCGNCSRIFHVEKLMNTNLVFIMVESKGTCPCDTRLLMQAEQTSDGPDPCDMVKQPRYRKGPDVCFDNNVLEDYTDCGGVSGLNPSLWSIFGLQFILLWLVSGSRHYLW
Protocol: as §1, §2
For investigating the potential-mediated calcium channel, the vein placed in the calcium-free Krebs-Ringer solution was washed by adding and then by removing 80 millimoles of potassium chloride while maintaining the isotania until no contraction appeared on repeatedly adding potassium chloride.
as §3

[9] = test system: postsynaptic alpha1 receptor; test: Kinetic analysis on rabbit aorta strip preparation: postsynaptic alpha1 receptor antagonism; type: cell-based
Protocol: Male rabbits with a body-weight of 3 to 3.5 kg were used for these experiments. […] A dose response curve was plotted by using norepinephrine and a dose selected from the steepest interval of the curve was added repeatedly to the bath until obtaining equal responses. Then, the compound to be tested was added and after 5 minutes, the dose series of norepinephrine was repeated. The extent of the inhibition was expressed as percentage.

[10] = test system: conscious renal hypertensive rats; test: Antihypertensive effect on conscious renal hypertensive rats after acute oral treatment; type: in vivo, rat; conditions: 1.25 mg/kg p.o.
Text: as §5, §6

[11] = test system: renal artery; test: Renal arterial vascular resistance in anaesthetized dogs; type: in vivo, Beagle dog; conditions: 1.0 mg/kg intraduodenal
Protocol: as §4
In an other series of these experiments, the substances were administered through a duodenal tube. Similarly to the experiments carried out on cats, the systemic arterial blood pressure was measured by using an electromanometer and the cardiotachometer was triggered by the heart rate wave sign.
The renal artery on one side was exposed retroperitoneally and fitted with an electromagnetic flow-meter head for measuring the blood flow of the renal arterial vascular bed and for determining the local vascular resistance.

[12] = rat portal vein, 80 millimoles KCl, 37° C., read-out: Inhibition of the calcium channel, potential-mediated, IC50

O=c1cccnn1CCCNCCCOc1ccccc1 [Example 9]
Mean arterial pressure decrease ([1]; 5.0 mg/kg i.v.): -55 Hgmm

COC(=O)C1=C(C)NC(C)=C(C(=O)OC)C1c1ccccc1[N+](=O)[O-] [Nifedipine, 2,6-dimethyl-4-(2-nitrophenyl)-1,4-dihydropyridine-3,5-dicarboxylic acid dimethyl ester, reference compound]
IC50 [2]: 2 µM

O=c1cccnn1CCCNCCOc1ccccc1F [Example 10]
Mean arterial pressure decrease ([1]; 5.0 mg/kg i.v.): -60 Hgmm | inhibition of the pressor effect of epinephrine (in words) [3]: significant inhibition | Decrease in the systolic blood pressure ([4]; 50 mg/kg p.o.): -25%

O=c1ccc(N2CCOCC2)nn1CCNCCOc1ccccc1 [Example 28]
Mean arterial pressure decrease ([1]; 5.0 mg/kg i.v.): -50 Hgmm

O=c1cccnn1CCNCC1COc2ccccc2O1 (centres unmarked) [Example 27]
Mean arterial pressure decrease ([1]; 5.0 mg/kg i.v.): -30 Hgmm

COc1ccc(CCN(C)CCCC(C#N)(c2ccc(OC)c(OC)c2)C(C)C)cc1OC (centres unmarked) [Verapamil, reference compound]
IC50 [2]: 1 µM | hypotension ([5]; 10 mg/kg intraduodenal): 30% | time of maximum effect ([5]; 10 mg/kg intraduodenal): 30 min | antihypertensive effect ([6]; 50 mg/kg p.o.): 30%

O=c1cccnn1CCCNCCOc1ccccc1 [Example 5]
IC50 [2]: 20 µM | Mean arterial pressure decrease ([1]; 5.0 mg/kg i.v.): -100 Hgmm | blood pressure lowering action (in words) [1]: particularly expressed | inhibition of the pressor effect of epinephrine (in words) [3]: significant inhibition | Decrease in the systolic blood pressure ([4]; 10 mg/kg p.o.): -45% | Decrease in the systolic blood pressure ([4]; 50 mg/kg p.o.): -42% | Inhibition of the stimulation [7]: 16.2% | IC50 [8, 12]: 50 µM

O=c1ccc(Cl)nn1CCCNCC1COc2ccccc2O1 (centres unmarked) [Example 2, 2-[3-(benzo[1,4]dioxan-2-yl-methylamino)-1-propyl]-6-chloro-3(2H)-pyridazinone hydrochloride]
IC50 [2]: 4 µM | Mean arterial pressure decrease ([1]; 1.0 mg/kg i.v.): -90 Hgmm | blood pressure lowering action (in words) [1]: particularly expressed | Inhibition of the stimulation [7]: 0% | IC50 [8, 12]: 10 µM

CCOC(=O)N1CCN(c2ccc(=O)n(CCNCCOc3ccccc3)n2)CC1 [Example 22]
Mean arterial pressure decrease ([1]; 5.0 mg/kg i.v.): -35 Hgmm

O=c1ccc(Cl)nn1CCCNCCSc1ccccc1 [Example 7]
Mean arterial pressure decrease ([1]; 5.0 mg/kg i.v.): -35 Hgmm

Cc1cc(C)n(-c2ccc(=O)n(CCNCCOc3ccccc3)n2)n1 [Example 23]
Mean arterial pressure decrease ([1]; 5.0 mg/kg i.v.): -65 Hgmm

O=c1ccc(Cl)nn1CCCNCCOc1ccccc1 [Example 4]
IC50 [2]: 0.1 µM | Mean arterial pressure decrease ([1]; 5.0 mg/kg i.v.): -70 Hgmm | blood pressure lowering action (in words) [1]: particularly expressed | Decrease in the systolic blood pressure ([4]; 50 mg/kg p.o.): -33% | IC50 [8, 12]: 0.2 µM

O=c1ccc(Cl)nn1CCCNCCOc1ccccc1Cl [Example 8]
Mean arterial pressure decrease ([1]; 5.0 mg/kg i.v.): -80 Hgmm | blood pressure lowering action (in words) [1]: particularly expressed | inhibition of the pressor effect of epinephrine (in words) [3]: significant inhibition | Decrease in the systolic blood pressure ([4]; 50 mg/kg p.o.): -18%

O=c1ccc(-n2cccc2)nn1CCCNCCOc1ccccc1 [Example 6]
Mean arterial pressure decrease ([1]; 5.0 mg/kg i.v.): -35 Hgmm

O=c1cccnn1CCNCCOc1ccccc1 [Example 21]
Mean arterial pressure decrease ([1]; 5.0 mg/kg i.v.): -60 Hgmm

COc1cc2nc(N3CCN(C(=O)c4ccco4)CC3)nc(N)c2cc1OC.Cl [Prazosine, 1-(4-amino-6,7-dimethoxy-2-quinazolinyl)-4-(2-furylcarbonyl)-piperazine hydrochloride, reference compound]
IC50 [2]: 0.009 µM | pA2 ([9]; negative logarithm of the molar antagonist concentration inhibiting the agonist to 50%, norepinephrine agonist, 5 min): 9.45 | Slope of the curve ([9]; rabbit aorta, norepinephrine): -0.96 | hypotension [10]: 26% | hypotension in the 5th hour ([10]; 5th hour): 20% | hypotensive action relative to same intraduodenal dose of compound of Example 3 (or 12) ([5]; prazosine 1 mg/kg intraduodenal): only the half | decrease in resistance of the renal artery [11]: about 40% | antihypertensive effect in the 5th hour ([6]; 1.25 mg/kg p.o., 5th hour): 26% | IC50 [8]: 500 µM
